Source: a melting point compilation (Tetko et al.; mined from patent text by program, amines drawn as free bases though some values may be those of a salt)

First: CCCc1c(C(=O)N(C)Cc2ccc3c(Br)c(OCc4nnn[nH]4)ccc3c2)cnn1-c1ccccc1
Second: O=c1c2c(Cc3cccc([N+](=O)[O-])c3)n[nH]c2c2cccnc2n1-c1ccccc1
The melting point of the first is lower: 75 to 85 °C for the first, > 320 °C for the second.

Compared with `CC1(C)CCC(C)(C)c2cc(-c3cc(-c4ccc(C(=O)O)cc4)ccc3OCCCO)ccc21`, `CCC(C)COC(=O)Oc1ccc(-c2ccc(O)cc2)cc1` (stereo unspecified) is lower in melting point: 317 °C for the first, 129 to 130 °C for the second.

First: CN(C)c1ccc(-n2c(CC(=O)O)c(C(=O)O)c3cc(Oc4ccc(C(F)(F)F)cc4)ccc32)cc1
Second: COC(=O)CCc1oc(-n2cnc3ccccc32)nc1-c1ccc(C(F)(F)F)cc1
The melting point of the first is higher: 235 to 237 °C for the first, 129 to 130 °C for the second.

First: Cc1c(CO)nc2n1CCc1ccccc1C2=C1CCN(C)CC1
Second: CNCC(=O)N1Cc2cccc3c2N(CC3)c2ccccc21
The melting point of the first is higher: 167 °C for the first, 128 to 130 °C for the second.

First: N#Cc1ccc2c(c1)OCC21C(=O)N(Cc2ccccn2)c2ccccc21 (stereo unspecified)
Second: COc1ccccc1Cn1c(=O)c2c(Cl)cc(N3CCNCC3)cc2n(Cc2ccccc2)c1=O
The melting point of the first is higher: 151 to 153 °C for the first, 83 to 87 °C for the second.

First: c1cn(-c2nc(N3CCOCC3)nc(-n3ccnc3)n2)cn1
Second: O=c1[nH]c(-c2c[nH]c3ccccc23)nc2ccc(N3CCOCC3)cc12
The melting point of the first is lower: 268 to 270 °C for the first, > 300 °C for the second.

Compared with `Cc1ccc(C2CCCN2S(=O)(=O)c2ccc(F)cc2)cc1` (racemic), `COC(=O)CS(=O)(=O)c1ccc(N2CCN(c3ccc(C#N)cc3)C2=O)cc1` is higher in melting point: 112 °C for the first, 246 to 249 °C for the second.

First: COCC(=O)N1c2ccc(N3C[C@H](CNC(C)=O)OC3=O)cc2C[C@H]1C
Second: CC1=C(C(=O)O)N2C(=O)C(NC(=O)Cc3ccc(CCl)cc3)C2SC1 (stereo unspecified)
The melting point of the first is higher: 174 to 175 °C for the first, 145 to 146 °C for the second.

First: Nc1nc(OC(F)F)cc(OC(F)F)n1
Second: CC(Oc1ncn(-c2cccc(C(F)(F)F)c2)n1)C(=O)O (stereo unspecified)
The melting point of the first is lower: 67 to 69 °C for the first, 206 to 208 °C for the second.

First: Cc1cc(C)c(-c2c(O)c(Cl)c(-c3ccc(Cl)cc3)oc2=O)c(C)c1
Second: COc1ccc(C(=O)c2ccc(F)cc2F)c(Cl)c1Cl
The melting point of the first is higher: 229 to 231 °C for the first, 139 to 141 °C for the second.

First: N#Cc1cc(C[C@H](N)C(=O)O)ccc1O
Second: COc1ccc2oc(C(=O)CBr)cc2c1
The melting point of the first is higher: > 250 °C for the first, 86 to 87 °C for the second.

Compared with `CC(C)c1nn(-c2ccc(C(F)(F)F)cn2)cc1CCCOc1c(CC(=O)O)cnn1C`, `O=C(O)CCCCc1cccn2cncc12` is higher in melting point: 146 to 148 °C for the first, 195 to 197 °C for the second.

First: CCNc1ccc(CN2OCC(C)(C)C2=O)c(Cl)c1
Second: CC1(C)SC2C(NC(=O)Cc3ccccc3)C(=O)N2C1c1nnn[nH]1 (stereo unspecified)
The melting point of the first is lower: 135 to 138 °C for the first, 168 to 170 °C for the second.

First: CCC1(C)OC1COc1ccc(C(=O)c2ccccc2)cc1 (stereo unspecified)
Second: COC(=O)Cc1ccc(C(=O)c2ccc(OC)cc2)n1C
The melting point of the first is lower: 66 to 67 °C for the first, 104 to 105 °C for the second.

First: Cc1[nH]c(C(=O)N2CCC(C(=O)NCCN(C)C)CC2)c(C)c1-c1nc2ccc(C(=O)c3ccccc3)cc2[nH]1
Second: O=C(CNC(=O)CSC(=O)c1ccccc1)CNC(=O)CSC(=O)c1ccccc1
The melting point of the first is higher: 258 to 260 °C for the first, 134 to 140 °C for the second.

First: N#Cc1cc(Cl)c(NC(=O)NC(=O)c2ccccc2Cl)cc1Cl
Second: CCCCNc1cc(C(=O)O)cc(S(N)(=O)=O)c1Oc1cccc(NC(C)=O)c1
The melting point of the first is higher: 244 to 247 °C for the first, 235 to 240 °C for the second.

First: COc1cc(C#N)cc(Br)c1O
Second: COc1ccc(CCN(C)C(=O)COc2ccc([N+](=O)[O-])cc2)cc1OC
The melting point of the first is higher: 144 to 145 °C for the first, 121 °C for the second.

First: O=Cc1ccc2c(c1)Sc1cc(C=O)ccc1N2c1ccccc1
Second: CC(O)(C=Cc1ccc(S(=O)(=O)c2ccccc2)cc1)C(F)(F)F (stereo unspecified)
The melting point of the first is higher: 194 to 198 °C for the first, 94 to 97 °C for the second.

First: COc1nc2ccc(Br)cc2cc1C(c1ccccc1)n1ccnc1 (stereo unspecified)
Second: Brc1ccc2c(c1)OC(c1ccccc1)(c1ccccc1)O2
The melting point of the first is higher: 161 to 162 °C for the first, 88 to 89 °C for the second.

First: NC(=O)C(Nc1ccc(I)cc1)c1ccccc1 (stereo unspecified)
Second: CN1CCN=C1CC(c1ccccc1)c1ccccc1
The melting point of the first is higher: 134 to 137 °C for the first, 108 to 110 °C for the second.

First: Cc1cccc(NC(=O)NCC(=O)N(c2ccccc2)C(C(=O)OC(C)(C)C)c2ccc(N)cc2)c1 (racemic)
Second: CC(C)CC(NCC(=O)NOCc1ccccc1)C(=O)NC(Cc1ccc2ccccc2c1)C(=O)NC(C)C(N)=O (stereo unspecified)
The melting point of the first is lower: 108 °C for the first, 205 to 212 °C for the second.

First: NC(=O)Cc1ccc(OCCN(CC(=O)c2ccc(OCc3ccccc3)c(OCc3ccccc3)c2)Cc2ccccc2)cc1
Second: CCCCCCCCOc1ccc(-c2nc(-c3ccccc3)c(-c3ccccc3)[nH]2)cc1
The melting point of the first is lower: 99 to 101 °C for the first, 178 °C for the second.

Compared with `CSC1=NC2=NC3=C(CNCC3=O)CN2N1`, `CCOn1c(CC)n[nH]c1=O` is lower in melting point: 266 to 269 °C for the first, 93 °C for the second.

First: CCCCc1ccc(C(=O)C(CC(=O)N[C@@H](Cc2cc(F)cc(F)c2)[C@H](O)CNCc2cccc(CC)c2)Cc2ccccc2)cc1 (stereo partly specified)
Second: CCOC(=O)COc1cccc2c1C[C@@H](NCc1ccccc1)[C@H](O)C2 (relative stereo)
The melting point of the first is lower: 42 to 45 °C for the first, 93 to 97 °C for the second.

First: COc1cccc(OC)c1/C=C/S(=O)(=O)CS(=O)(=O)/C=C/c1c(OC)cccc1OC
Second: CON(C)C(=O)c1cc2cccc(NS(=O)(=O)c3cccs3)c2[nH]1
The melting point of the first is lower: 118 to 120 °C for the first, 180 to 181 °C for the second.

First: Cc1cc(C(O)(C(F)(F)F)C(F)(F)F)cc(C)c1NCCC#N
Second: CCNC(=O)Nc1ccc(C(O)(C(F)(F)F)C(F)(F)F)cc1[N+](=O)[O-]
The melting point of the first is lower: 111 to 114 °C for the first, 169 to 171 °C for the second.

First: CC1(C)CCN(c2ccc(-c3nc(C(=O)Nc4nccs4)c(-c4ccc(Cl)cc4)[nH]3)cc2)CC1
Second: Cc1ccc(NCC2CCN(C3CCCC3)CC2)c(C(=O)Nc2ccc(Cl)cn2)c1
The melting point of the first is lower: 150 to 154 °C for the first, 173 to 175 °C for the second.

First: N#CNC(=N)NCCN1CCC(C2(c3ccc(F)cc3)OCCO2)CC1
Second: Cc1c(C)c2c(c(C)c1N)CC(C)(CN1CCC(NC(c3ccc(F)cc3)c3ccc(F)cc3)CC1)O2 (stereo unspecified)
The melting point of the first is higher: 161 to 163 °C for the first, 133 to 134 °C for the second.

First: Cn1cc(Cl)c2c1C(=O)Nc1ccccc1N2
Second: CCCC1=C(C(=O)OCC)C(c2ccccc2[N+](=O)[O-])c2c[nH]nc2N1 (stereo unspecified)
The melting point of the first is lower: 172 to 175 °C for the first, 218 °C for the second.

First: CCOC(=O)c1csc(Cc2ccc([N+](=O)[O-])cc2)n1
Second: CCOC(=O)c1conc1-c1ccc(F)c(Cl)c1
The melting point of the first is higher: 122 to 123 °C for the first, 108 to 109 °C for the second.

Compared with `Cc1cc(C(C)(C)C)c(OP2OP(Oc3c(C(C)(C)C)cc(C)cc3C(C)(C)C)OP(Oc3c(C(C)(C)C)cc(C)cc3C(C)(C)C)O2)c(C(C)(C)C)c1` (stereo unspecified), `CC1CCC(C(C)C)C(OC(=O)C2(CC(=O)OC(C)(C)C)C(=O)N(Cc3ccc(Br)cc3F)C(=O)c3cccn32)C1` (stereo unspecified) is lower in melting point: 176 to 181 °C for the first, 99 to 100 °C for the second.

`O=C(Nc1ccc(C[C@H](NS(=O)(=O)N2CCCCCC2)C(=O)O)cc1)c1c(Cl)cncc1Cl` and `COC(=O)COc1ccc(Cl)c2c1c1c(n2Cc2ccccc2)CCCC1C(N)=O` (stereo unspecified) cannot be ordered by melting point: 185 °C for the first, 185 to 186 °C for the second.

First: COc1cccc2nc3c(c(N)c12)CCCC3
Second: COc1cccc(C2CCCN(C(=O)Cc3cc4ccccc4o3)C2)c1 (stereo unspecified)
The melting point of the first is higher: 187 to 188 °C for the first, 175 to 176 °C for the second.

Compared with `CC(C)(C)C(=O)Nc1cc2c(O)n(I)cnc-2n1`, `CC(C)(O)c1cccn2c(-c3ccnc(NC4CCC(C(=O)N5CCC(O)CC5)CC4)n3)cnc12` (stereo unspecified) is lower in melting point: > 240 °C for the first, 188 to 190 °C for the second.

First: O=c1ccn(CCO)c(Cc2cccc(F)c2)c1O
Second: O=S1(=O)NC(c2cccc(F)c2)c2ccccc21 (single isomer, unassigned; (+))
The melting point of the first is higher: 235 to 242 °C for the first, 148 °C for the second.

First: C[C@@H](O)[C@H]1CC[C@H]2[C@@H]3CC=C4CC(=O)CC[C@]4(C)[C@H]3CC[C@]12C
Second: CCOC(=O)c1[nH]cc2c1C1C=CC2CC1 (stereo unspecified)
The melting point of the first is higher: 171 to 175 °C for the first, 129 to 130 °C for the second.

Compared with `CCCCOC1C=CC(=O)N1S(=O)(=O)c1ccc(OC)cc1` (stereo unspecified), `CCCCCCCOc1ccc(C2CC(CCCCCC)C(=O)O2)cc1` (stereo unspecified) is lower in melting point: 65 to 66 °C for the first, 45.9 to 47 °C for the second.

First: CNC(=O)NS(=O)(=O)c1cc2c(cc1OC)OCCC2CNC(=O)c1cc(Cl)ccc1OC (single isomer, unassigned; (+))
Second: CNC(=O)NC1=NC(=CCC(=O)Nc2ccc(Cl)cc2)CS1
The melting point of the first is lower: 147 to 148 °C for the first, 203 to 205 °C for the second.

Compared with `Cn1c(=O)c2c(ncn2CCCN2CCN(c3nccnc3Cl)CC2)n(C)c1=O`, `O=C(c1ccc(Br)cc1F)N1CCN(c2ccncc2)CC1` is lower in melting point: 205 to 207 °C for the first, 125 to 126 °C for the second.

Compared with `Clc1cnc2c(-c3ccccc3)nc(-c3ccccc3)nc2c1`, `Cc1ccc(OCc2nc(-c3ccccc3)oc2C)cn1` is lower in melting point: 120 to 121 °C for the first, 103 to 104 °C for the second.

First: O=CC1=C(Br)CC(F)(Br)C=C1 (stereo unspecified)
Second: C=CCc1c(O)ccc2ccc(=O)n(CC=C(C)C)c12
The melting point of the first is lower: 57 to 58 °C for the first, 138 to 142 °C for the second.

Compared with `CSc1ccc(/C=C(\NC(=O)c2ccc(OCC(C)C)cc2)C(=O)NCCO)cc1`, `CN(C)c1ccc2cc(C(/C=C\NCCO)=C(C#N)C#N)ccc2c1` is higher in melting point: 161 to 163 °C for the first, 168 to 170 °C for the second.

First: Cc1c(=O)n(Cc2ccc(C#N)cc2)c(=O)n2cc(C(=O)NCc3ccc(F)cc3)sc12
Second: CCOC(=O)c1cccc(C(=O)c2cccnc2-c2ccc(S(C)(=O)=O)cc2)c1
The melting point of the first is higher: > 220 °C for the first, 125 to 132 °C for the second.

First: C#CCOc1cc(NN=C2CCCCN2C(=O)OC)c(Cl)cc1Cl
Second: CC(C)(C)OC(=O)COc1ccc(-c2c(Cl)c(CN3C(=O)CCC3=O)nc3sc4c(c23)CCS(=O)(=O)C4)cc1
The melting point of the first is lower: 137 to 138 °C for the first, 204 to 205 °C for the second.

Compared with `N#CC(C#N)=C1N(CCCN2CCCCC2)CCN1CCCN1CCCCC1`, `CCOC(=O)CCC(O)c1cnc2c(OC)cccc2c1Nc1ccccc1C` (stereo unspecified) is higher in melting point: 99 to 101 °C for the first, 133 to 135 °C for the second.

First: OC(c1ccccc1)(c1cccc(C(F)(F)F)c1)c1ncc[nH]1 (stereo unspecified)
Second: N#Cc1c(N)nc2ccccc2c1NCc1ccco1
The melting point of the first is lower: 152 °C for the first, 206 °C for the second.

First: CCc1nnc2n1-c1ccc(I)cc1C(c1ccccc1F)=NC2
Second: CCc1cc(Oc2ccc(S(C)(=O)=O)nc2)cc2cc(C3=NCC(CC(=O)O)S3)[nH]c12 (stereo unspecified)
The melting point of the first is lower: 209 to 211 °C for the first, 230 to 232 °C for the second.

First: CCOP(=O)(OCC)c1nc(NC(C)C)nc(NC(C)C)n1
Second: CC1=N/C(=C\c2cccnc2)C(=O)O1
The melting point of the first is lower: 91 to 94 °C for the first, 173 °C for the second.
